According to article PMC5055294 (PLoS ONE, 2016):

How the values were obtained:
Format in all cases: cell-based
CMKLR1 [1] = molecular target: T1, CMKLR1 (Homo sapiens, UniProt Q99788); experiment: ERK1/2 phosphorylation in MEF cells, CMKLR1; design: expressed in transfected cells; settings: PTX pre-treatment, 300 nM chemerin
T1 sequence (Q99788 1-373): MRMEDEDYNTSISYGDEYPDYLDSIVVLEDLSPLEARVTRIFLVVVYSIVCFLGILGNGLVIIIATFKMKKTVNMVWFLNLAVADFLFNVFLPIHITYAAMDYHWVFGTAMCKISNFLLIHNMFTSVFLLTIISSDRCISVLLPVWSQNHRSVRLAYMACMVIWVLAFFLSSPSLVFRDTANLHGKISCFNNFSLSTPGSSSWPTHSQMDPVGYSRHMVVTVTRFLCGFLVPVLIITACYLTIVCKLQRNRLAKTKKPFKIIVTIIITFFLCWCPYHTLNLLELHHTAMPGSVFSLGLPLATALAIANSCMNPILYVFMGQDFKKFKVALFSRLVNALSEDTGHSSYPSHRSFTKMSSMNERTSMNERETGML
Procedure: Whole cell lysates were resolved on 10% Tris/Tricine polyacrylamide gels and transferred to nitrocellulose membranes. […] Chemiluminescent detection was performed using ECL-Plus reagent (Perkin Elmer).
Results are expressed as the ratio between the amounts of phospho-ERK1/2 and total ERK1/2 following quantification. […] MEF cells were derived form β-Arr1 KO and WT1 or β-Arr2 KO and WT2 siblings.

GPR1 [2] = molecular target: T2, GPR1 (Homo sapiens, UniProt P46091); experiment: β-arrestin BRET recruitment assay, GPR1; design: expressed in transfected cells; host or cells: HEK293T; settings: GPR1, HEK293T; PTX pretreatment, 100 nM chemerin
T2 sequence (P46091 1-355): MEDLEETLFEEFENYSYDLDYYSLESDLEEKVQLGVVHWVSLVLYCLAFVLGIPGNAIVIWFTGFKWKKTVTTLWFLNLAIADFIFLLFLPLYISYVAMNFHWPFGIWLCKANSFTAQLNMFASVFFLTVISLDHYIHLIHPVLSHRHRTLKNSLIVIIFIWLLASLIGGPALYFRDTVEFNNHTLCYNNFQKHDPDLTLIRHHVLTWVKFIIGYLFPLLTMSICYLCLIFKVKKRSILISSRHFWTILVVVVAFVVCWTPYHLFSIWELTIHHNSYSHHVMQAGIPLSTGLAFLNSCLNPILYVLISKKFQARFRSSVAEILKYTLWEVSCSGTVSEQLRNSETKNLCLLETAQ
Procedure: (§1) β-arrestin recruitment was measured by a BRET proximity assay as previously described. Briefly, plasmids encoding Rluc-β-arrestin 2 and receptors fused to Venus were cotransfected into HEK293T cells by using the calcium phosphate method. […] BRET^1 between RLuc and YFP was measured after the addition of coelenterazine h (5 μM, Promega).
(§2) Data represent the mean ± S.E.M. of three independent experiments.
as §2

GPR1 [3] = molecular target: T2, GPR1; experiment: ERK1/2 phosphorylation in MEF cells, GPR1; design: expressed in transfected cells; settings: PTX pre-treatment, 300 nM chemerin
Procedure: CHO-K1 and MEF cells stably expressing receptors of interest were starved for 12–18 h in serum-free medium prior to stimulation. […] Whole cell lysates were resolved on 10% Tris/Tricine polyacrylamide gels and transferred to nitrocellulose membranes. Phosphorylated ERK1/2 and total ERK1/2 were detected by using rabbit polyclonal anti-phospho-ERK1/2 (Cell Signaling #4370, 1:1,000) and anti-ERK1/2 (Cell Signaling #4695S, 1:2,000) antibodies. Chemiluminescent detection was performed using ECL-Plus reagent (Perkin Elmer).
We next investigated the contribution of Gαi/o proteins and arrestins to ERK1/2 phosphorylation by using mouse embryonic fibroblast cells (MEF) deficient for the expression of arrestins (β-Arr1^-/- and β-Arr2^-/-) and stably expressing CMKLR1 or GPR1. […] However, we cannot rule out that the weak activation of G proteins by GPR1 contributes to ERK1/2 phosphorylation. We also must take into consideration that these assays display different levels of amplification and were performed in different cell types.
Fig 10 Contribution of Gi/o proteins and arrestins to CMKLR1- and GPR1-mediated ERK1/2 phosphorylation. […] Results are expressed as the ratio between the amounts of phospho-ERK1/2 and total ERK1/2 following quantification. […] Statistical significance was assessed using Tukey's test (***P < 0.0001; ** and ^## P< 0.001; * and ^# P< 0.01).

CMKLR1 [4] = molecular target: T1, CMKLR1; experiment: β-arrestin BRET recruitment assay, CMKLR1; design: expressed in transfected cells; host or cells: HEK293T; settings: CMKLR1, HEK293T; PTX pretreatment, 100 nM chemerin
Procedure: as §1, §2, §2

With Pertussis toxin the “effect of PTX on ERK1/2 phosphorylation” value (CMKLR1 [1]) was “partially inhibited”, the “effect of PTX on β-arrestin1 recruitment” value (GPR1 [2]) was “inhibits partially β-arrestin1 recruitment to CMKLR1 and GPR1” and the “effect of PTX on β-arrestin2 recruitment” value (GPR1 [2]) was “did not inhibit β-arrestin2 recruitment to CMKLR1 and GPR1”. For the same substance, the “effect of PTX on ERK1/2 phosphorylation” value (GPR1 [3]) was “partially inhibited”, the “effect of PTX on β-arrestin1 recruitment” value (CMKLR1 [4]) was “inhibits partially β-arrestin1 recruitment to CMKLR1 and GPR1” and the “effect of PTX on β-arrestin2 recruitment” value (CMKLR1 [4]) was “did not inhibit β-arrestin2 recruitment to CMKLR1 and GPR1”.
